From patent US20100267653A1, “USE OF COUMARIN DERIVATIVES IN ANTIFUNGAL THERAPY” (priority 2006, published 2010)
Converted amounts (≈) assume the structure as drawn.

How the values were obtained:
[1] = Solubility of coumarins in RPMI 1640 media and DMSO; format: physicochemical; settings: for solubility: aqueous buffer, kinetic from dmso stock, pH = 7.0, in presence of the DMSO concentration of the same table line
Procedure: The solubility of the aglycones was compared to the respective glycoside in RPMI 1640 media and in DMSO.
(§1) Solubilisation of other compounds required the presence of DMSO. Esculetin, daphnetin, 4-(trifluoromethyl) coumarin, 4-(trifluoromethyl)-coumarin-7-0-glucose and cichoriin were dissolved in DMSO at 1000× final test concentration; when this solution was diluted to the concentration used in the experiments using 2× strength RPMI 1640 medium, the final concentration of DMSO was […] which alone had no effect on the fungi when tested in several experiments performed. Fraxetin required a final concentration of 0.2% DMSO, but this too had no effect on the growth of the fungi when tested in separate experiments.

[2] = test system: Trichophyton interdigitale NCPF335; test: Antifungal activity, growth in RPMI 1640 microtitre plates (OD 530 nm); format: cell-based; settings: Trichophyton interdigitale; T. interdigitale NCPF335, 30° C.
Procedure: (§2) Esculin, esculetin and a range of other coumarins and their glycosides were tested for their antifungal activity against Trichophyton rubrum, Trichophyton interdigitale and other fungi isolated from nails and skin.
(§3) Suspensions of fungal conidia and hyphal fragments for use as experimental inocula were prepared by adding 3 ml of demineralised water or 0.15% (w/v) NaCl solution to a slope culture which had been incubated at 30° C. for 7 to 10 days and probing the surface of the culture with a sterile plastic transfer pipette. […] The resulting suspension was filtered through a double layer of sterile surgical gauze; if necessary a further volume of up to 3 ml of water or 0.15% (w/v) NaCl was used to wash through any spores or small hyphal fragments held on the gauze. 100 μl of this suspension, adjusted to an optical density between 0.14 and 0.16 at 530 nm (corresponding to between 0.5 and 1.5×10^6 propagules/ml) was added to the wells in sterile 96-well microtitre plates to which 100 μl of 2× strength RPMI 1640 media (a chemically-defined nutrient medium widely used in tissue culture and antimicrobial resistance testing) had been added. Inocula prepared in this way were used in all of the experiments; additionally, for some experiments with esculin shown in FIG. 4, the results obtained with standard inocula prepared as described above (labelled “young inoculum” in FIG. 4), were compared with the results obtained in similar tests using inocula which had been cultured for up to 9 weeks (labelled “old inoculum” in FIG. 4). As appropriate, coumarins were pre-dissolved in 2× strength RPMI 1640 medium before addition to the plate. Experiments with the yeasts Candida albicans and Candida krusei were set up in the same way, but in these cases, filtration of the cell suspensions was not necessary.
as §1
(§4) A series of dilutions of the coumarin solutions was prepared on the plates by mixing known volumes of the coumarin stock solutions in the wells with fresh volumes of 2×RPMI 1640 medium. Each concentration of coumarin was studied in triplicate wells. For observations on Trichophyton rubrum NCPF118 and Trichophyton interdigitale NCPF335, obtained from the National Collection of Pathogenic Fungi (Bristol), the plates were incubated in a Bio-Tek Powerwave XS scanning plate reader at 30° C., and fungal growth within the plates was measured at intervals of 2 h for up to 72 h or 96 h as specified in the text by recording the absorbance (optical density) of the wells at 530 nm. Observations on Candida albicans and Candida krusei were made in the same way, but the incubation temperature was 37° C. and the incubation time was 48 h. For observations with clinical fungal isolates obtained from the collection of M. Monod (Lausanne, Switzerland), the procedure was as described above except that in response to the relatively slow growth of these isolates, incubations were performed in a static incubator at 30° C. and the plates were read manually in a Bio-Tek Powerwave XS scanning plate reader at intervals of 24 h for up to 168 h, being returned to the incubator after each reading. Malassezia furfur grows poorly in the system described above, so for this organism, a standard inoculum of M. furfur was mixed with an equal volume of a solution of esculetin and the mixture was plated onto Petri dishes containing Sabouraud's agar medium. […]

[3] = test system: Trichophyton rubrum NCPF118; test: as above; format: cell-based; settings: for MIC: Trichophyton rubrum, T. rubrum NCPF118, 30° C., read-out: MIC
Procedure: as §2, §3, §1, §4

[4] = test system: Candida albicans, Cryptococcus neoformans, Saccharomyces cerevisiae and Aspergillus niger; settings: Sardari et al, Bioorg. Med. Chem. 7, 1999; cited from earlier work
[5] = test system: T. mentagrophytes var interdigitale strain 386; test: Sensitivity of clinical isolates of dermatophytes to esculetin; format: cell-based, Trichophyton mentagrophytes var. interdigitale; design: key to Sensitive (S) or Resistant (R): Sensitive (S); Resistant (R); settings: strain 386, 1 strain tested
Procedure: as §2
(§5) Suspensions of fungal conidia and hyphal fragments for use as experimental inocula were prepared by adding 3 ml of demineralised water or 0.15% (w/v) NaCl solution to a slope culture which had been incubated at 30° C. for 7 to 10 days and probing the surface of the culture with a sterile plastic transfer pipette. […] The resulting suspension was filtered through a double layer of sterile surgical gauze; if necessary a further volume of up to 3 ml of water or 0.15% (w/v) NaCl was used to wash through any spores or small hyphal fragments held on the gauze. […]
(§6) A series of dilutions of the coumarin solutions was prepared on the plates by mixing known volumes of the coumarin stock solutions in the wells with fresh volumes of 2×RPMI 1640 medium. […] For observations on Trichophyton rubrum NCPF118 and Trichophyton interdigitale NCPF335, obtained from the National Collection of Pathogenic Fungi (Bristol), the plates were incubated in a Bio-Tek Powerwave XS scanning plate reader at 30° C., and fungal growth within the plates was measured at intervals of 2 h for up to 72 h or 96 h as specified in the text by recording the absorbance (optical density) of the wells at 530 nm. […]

T. mentagrophytes = test: as above; format: cell-based, Trichophyton mentagrophytes; design: key to Sensitive (S) or Resistant (R): Sensitive (S); Resistant (R); settings: 27 strains tested
Procedure: as §2, §5, §6

T. soudanense = test: as above; format: cell-based, Trichophyton soudanense; design: key to Sensitive (S) or Resistant (R): Sensitive (S); Resistant (R); settings: 2 strains tested
Procedure: as §2, §5, §6

T. rubrum strain 1072 = test: as above; format: cell-based, Trichophyton rubrum; design: key to Sensitive (S) or Resistant (R): Sensitive (S); Resistant (R); settings: T. rubrum strain 1072, 3 tested
Procedure: as §2, §5, §6

T. tonsurans = test: as above; format: cell-based, Trichophyton tonsurans; design: key to Sensitive (S) or Resistant (R): Sensitive (S); Resistant (R); settings: 2 strains tested
Procedure: as §2, §5, §6

Aspergillus fumigatus = test: Sensitivity of other fungal isolates of pathogenic fungi to esculetin; format: cell-based; design: key to Sensitive (S) or Resistant (R): Sensitive (S); Resistant (R); settings: 1 strain tested
Procedure: as §2, §3, §1, §4

Curvularia spp. = test: as above; format: cell-based; design: key to Sensitive (S) or Resistant (R): Sensitive (S); Resistant (R); settings: 1 strain tested
Procedure: as §2, §3, §1, §4

Alternaria spp. = test: as above; format: cell-based; design: key to Sensitive (S) or Resistant (R): Sensitive (S); Resistant (R); settings: 1 strain tested
Procedure: as §2, §3, §1, §4

Fusarium spp. = test: as above; format: cell-based; design: key to Sensitive (S) or Resistant (R): Sensitive (S); Resistant (R); settings: 15 strains tested
Procedure: as §2, §3, §1, §4

[6] = test system: Scopulariopsis brevicaulis; test: as above; format: cell-based; design: key to Sensitive (S) or Resistant (R): Sensitive (S); Resistant (R); settings: 4 strains tested
Procedure: as §2, §3, §1, §4

Trichophyton rubrum = test: Sensitivity of clinical isolates of dermatophytes to esculetin; format: cell-based; design: key to Sensitive (S) or Resistant (R): Sensitive (S); Resistant (R); settings: 48 strains tested
Procedure: as §2
(§7) Suspensions of fungal conidia and hyphal fragments for use as experimental inocula were prepared by adding 3 ml of demineralised water or 0.15% (w/v) NaCl solution to a slope culture which had been incubated at 30° C. for 7 to 10 days and probing the surface of the culture with a sterile plastic transfer pipette. […] The resulting suspension was filtered through a double layer of sterile surgical gauze; if necessary a further volume of up to 3 ml of water or 0.15% (w/v) NaCl was used to wash through any spores or small hyphal fragments held on the gauze. 100 μl of this suspension, adjusted to an optical density between 0.14 and 0.16 at 530 nm (corresponding to between 0.5 and 1.5×10^6 propagules/ml) was added to the wells in sterile 96-well microtitre plates to which 100 μl of 2× strength RPMI 1640 media (a chemically-defined nutrient medium widely used in tissue culture and antimicrobial resistance testing) had been added. Inocula prepared in this way were used in all of the experiments; additionally, for some experiments with esculin shown in FIG. 4, the results obtained with standard inocula prepared as described above (labelled “young inoculum” in FIG. 4), were compared with the results obtained in similar tests using inocula which had been cultured for up to 9 weeks (labelled “old inoculum” in FIG. 4). As appropriate, coumarins were pre-dissolved in 2× strength RPMI 1640 medium before addition to the plate. […]
as §4, with “Each concentration of coumarin was studied in triplicate wells.” left out, “Observations on Candida albicans and Candida krusei were made in the same way, but the incubation temperature was 37° C. and the incubation time was 48 h.” left out, “reading.” for “reading. Malassezia furfur grows poorly in the system described above, so for this organism, a standard inoculum of M. furfur was mixed with an equal volume of a solution of esculetin and the mixture was plated onto Petri dishes containing Sabouraud's agar medium.”

Microsporum canis = test: as above; format: cell-based; design: key to Sensitive (S) or Resistant (R): Sensitive (S); Resistant (R); settings: 4 strains tested
Procedure: as §2, §7
as §4, with “Each concentration of coumarin was studied in triplicate wells.” left out, “Observations on Candida albicans and Candida krusei were made in the same way, but the incubation temperature was 37° C. and the incubation time was 48 h.” left out, “reading.” for “reading. Malassezia furfur grows poorly in the system described above, so for this organism, a standard inoculum of M. furfur was mixed with an equal volume of a solution of esculetin and the mixture was plated onto Petri dishes containing Sabouraud's agar medium.”

M. gypseum = test: as above; format: cell-based, Microsporum gypseum; design: key to Sensitive (S) or Resistant (R): Sensitive (S); Resistant (R); settings: clinical isolate, 1 strain tested
Procedure: as §2, §5, §6

[7] = DMSO present for the stated solubility in RPMI 1640
[8] = RPMI 1640 medium with DMSO co-solvent

SMILES: O=c1ccc2ccc(O)c(O)c2o1 [Daphnetin, 7,8-dihydroxycoumarin]
- DMSO Concentration [1, 7]: 0.1 % v/v
- solubility [1]: 5000 µM
- MIC [2]: 250 µM (≈ 44.5 µg/mL)
- MIC [3]: 500 µM (≈ 89.1 µg/mL)

SMILES: O=c1ccc2cc(O)c(O)cc2o1 [Esculetin, 6,7 dihydroxycoumarin]
- antifungal activity against the fungi tested [4]: minimal antifungal activity
- MIC esculetin, range in mM [5]: ≧2 mM
- Sensitive (S) or Resistant (R) [5]: R
- solubility [1, 8]: 5000 µM
- DMSO Concentration ([1]; pH 7): 0.1 % v/v
- MIC esculetin, range in mM (T. mentagrophytes): 1.1 ± 0.5 mM (≈ 196 µg/mL)
- Sensitive (S) or Resistant (R) (T. mentagrophytes): S
- MIC esculetin, range in mM (T. soudanense): 0.31 ± 0.27 mM (≈ 55.2 µg/mL)
- Sensitive (S) or Resistant (R) (T. soudanense): S
- MIC esculetin, range in mM (T. rubrum strain 1072): ≧2 mM
- Sensitive (S) or Resistant (R) (T. rubrum strain 1072): R
- MIC esculetin, range in mM (T. tonsurans): 0.25 ± 0.18 mM (≈ 44.5 µg/mL)
- Sensitive (S) or Resistant (R) (T. tonsurans): S
- Sensitive (S) or Resistant (R) (Aspergillus fumigatus): R
- MIC (Aspergillus fumigatus; Aspergillus fumigatus): ≥ 2000 µM
- Sensitive (S) or Resistant (R) (Curvularia spp.): R
- MIC (Curvularia spp.; Curvularia): ≥ 2000 µM
- Sensitive (S) or Resistant (R) (Alternaria spp.): S
- MIC (Alternaria spp.; Alternaria): 1000 µM (≈ 178 µg/mL)
- Sensitive (S) or Resistant (R) (Fusarium spp.): R
- MIC (Fusarium spp.; Fusarium): ≥ 2000 µM
- Sensitive (S) or Resistant (R) [6]: R
- MIC ([6]; Scopulariopsis brevicaulis): ≥ 2000 µM
- MIC esculetin, range in mM (Trichophyton rubrum): 0.54 ± 0.37 mM (≈ 96.2 µg/mL)
- Sensitive (S) or Resistant (R) (Trichophyton rubrum): S
- MIC esculetin, range in mM (Microsporum canis): 1.0 ± 0.58 mM (≈ 178 µg/mL)
- Sensitive (S) or Resistant (R) (Microsporum canis): S
- antifungal effect versus T. rubrum NCPF118 ([3]; FIG. 3): dose-dependent antifungal effect
- MIC esculetin, range in mM (M. gypseum): ≧2 mM
- Sensitive (S) or Resistant (R) (M. gypseum): R

SMILES: O=c1cc(C(F)(F)F)c2ccc(O)cc2o1 [4-(trifluoromethyl)coumarin, 7-hydroxy-4-(trifluoromethyl)coumarin]
- solubility (in words) [1]: only being soluble at low concentrations
- DMSO Concentration [1, 7]: 0.2 % v/v
- solubility [1, 8]: 2000 µM
- MIC [3]: 1000 µM (≈ 230 µg/mL)
- activity of halogenated coumarin aglycone versus T. rubrum NCPF118 ([3]; at concentrations of 1-2 mM, FIG. 6): significantly antifungal

SMILES: O=c1cc(C(F)(F)F)c2ccc(OC3O[C@H](CO)[C@@H](O)[C@H](O)[C@H]3O)cc2o1 (stereo partly shown) [4-(trifluoromethyl)coumarin-7-glucoside]
- DMSO Concentration ([1]; pH 7): 0 % v/v
